The structures appear in SMILES notation.

For this experiment, the target named is Bcl-2 G101V (Homo sapiens, UniProt P10415, G101V). Nature of the experiment: Bcl-2 G101V inhibition, fluorescence polarization (Flu-BIM tracer) binding assay. The conditions noted are these: FP; 20 nM Bcl2, 5 nM Flu-BIM, 1 h incubation; read-out: Bcl-2 G101V (FP).
Consider `CC1(C)CCC(CN2CCN(c3ccc(C(=O)NS(=O)(=O)c4ccc(NC[C@H]5CC[C@](C)(O)CC5)c([N+](=O)[O-])c4)c(Oc4cnc5[nH]ccc5c4)c3)CC2)=C(c2cc(-c3ccc(C(C)(C)O)c(F)c3)cs2)C1` [Example 71, 2-((1H-pyrrolo[2,3-b]pyridin-5-yl)oxy)-4-(4-((2-(4-(3-fluoro-4-(2-hydroxypropan-2-yl)phenyl)thiophen-2-yl)-4,4-dimethylcyclohex-1-en-1-yl)methyl)piperazin-1-yl)-N-((4-((((1r,4r)-4-hydroxy-4-methylcyclohexyl)methyl)amino)-3-nitrophenyl)sulfonyl)benzamide], for which the IC50 was 20.3 nM.

As for `CC(CO)c1ccc(-c2csc(C3=C(CN4CCN(c5ccc(C(=O)NS(=O)(=O)c6ccc(NC[C@H]7CC[C@](C)(O)CC7)c([N+](=O)[O-])c6)c(Oc6cnc7[nH]ccc7c6)c5)CC4)CCC(C)(C)C3)c2)c(F)c1` (stereo partly shown) [Example 72, 2-((1H-pyrrolo[2,3-b]pyridin-5-yl)oxy)-4-(4-((2-(4-(2-fluoro-4-(1-hydroxypropan-2-yl)phenyl)thiophen-2-yl)-4,4-dimethylcyclohex-1-en-1-yl)methyl)piperazin-1-yl)-N-((4-((((1r,4r)-4-hydroxy-4-methylcyclohexyl)methyl)amino)-3-nitrophenyl)sulfonyl)benzamide], the IC50 stood at 27 nM.

As to `CC(C)(O)Cc1ccc(-c2csc(C3=C(CN4CCN(c5ccc(C(=O)NS(=O)(=O)c6ccc(NC[C@H]7CC[C@](C)(O)CC7)c([N+](=O)[O-])c6)c(Oc6cnc7[nH]ccc7c6)c5)CC4)CCC(C)(C)C3)c2)c(F)c1` [Example 73, 2-((1H-pyrrolo[2,3-b]pyridin-5-yl)oxy)-4-(4-((2-(4-(2-fluoro-4-(2-hydroxy-2-methylpropyl)phenyl)thiophen-2-yl)-4,4-dimethylcyclohex-1-en-1-yl)methyl)piperazin-1-yl)-N-((4-((((1r,4r)-4-hydroxy-4-methylcyclohexyl)methyl)amino)-3-nitrophenyl)sulfonyl)benzamide], the IC50 is 25.2 nM.

As for `CC1(C)CCC(CN2CCN(c3ccc(C(=O)NS(=O)(=O)c4ccc(NC[C@H]5CC[C@](C)(O)CC5)c([N+](=O)[O-])c4)c(Oc4cnc5[nH]ccc5c4)c3)CC2)=C(c2cc(-c3c(F)cc(C(C)(C)CO)cc3F)cs2)C1` [Example 74, 2-((1H-pyrrolo[2,3-b]pyridin-5-yl)oxy)-4-(4-((2-(4-(2,6-difluoro-4-(1-hydroxy-2-methylpropan-2-yl)phenyl)thiophen-2-yl)-4,4-dimethylcyclohex-1-en-1-yl)methyl)piperazin-1-yl)-N-((4-((((1r,4r)-4-hydroxy-4-methylcyclohexyl)methyl)amino)-3-nitrophenyl)sulfonyl)benzamide], the IC50 worked out at 30.2 nM.

Regarding `CC1(C)CCC(CN2CCN(c3ccc(C(=O)NS(=O)(=O)c4ccc(NC[C@H]5CC[C@](C)(O)CC5)c([N+](=O)[O-])c4)c(Oc4cnc5[nH]ccc5c4)c3)CC2)=C(c2cc(-c3cc(C(C)(C)O)ccc3F)cs2)C1` [Example 75, 2-((1H-pyrrolo[2,3-b]pyridin-5-yl)oxy)-4-(4-((2-(4-(2-fluoro-5-(2-hydroxypropan-2-yl)phenyl)thiophen-2-yl)-4,4-dimethylcyclohex-1-en-1-yl)methyl)piperazin-1-yl)-N-((4-((((1r,4r)-4-hydroxy-4-methylcyclohexyl)methyl)amino)-3-nitrophenyl)sulfonyl)benzamide], the IC50 was found to be 34.3 nM.

Take `CC1(C)CCC(CN2CCN(c3ccc(C(=O)NS(=O)(=O)c4ccc(NC[C@H]5CC[C@](C)(O)CC5)c([N+](=O)[O-])c4)c(Oc4cnc5[nH]ccc5c4)c3)CC2)=C(c2cc(-c3ccc(C(C)(O)C(F)(F)F)cc3F)cs2)C1` (stereo partly shown) [Example 78, 2-((1H-pyrrolo[2,3-b]pyridin-5-yl)oxy)-4-(4-((2-(4-(2-fluoro-4-(1,1,1-trifluoro-2-hydroxypropan-2-yl)phenyl)thiophen-2-yl)-4,4-dimethylcyclohex-1-en-1-yl)methyl)piperazin-1-yl)-N-((4-((((1r,4r)-4-hydroxy-4-methylcyclohexyl)methyl)amino)-3-nitrophenyl)sulfonyl)benzamide]: the IC50 is 33.2 nM.

In the case of `CC1(C)CCC(CN2CCN(c3ccc(C(=O)NS(=O)(=O)c4ccc(NC[C@H]5CC[C@](C)(O)CC5)c([N+](=O)[O-])c4)c(Oc4cnc5[nH]ccc5c4)c3)CC2)=C(c2cc(-c3ccc4c(c3)CCC4(C)O)cs2)C1` (stereo partly shown) [Example 79, 2-((1H-pyrrolo[2,3-b]pyridin-5-yl)oxy)-4-(4-((2-(4-(1-hydroxy-1-methyl-2,3-dihydro-1H-inden-5-yl)thiophen-2-yl)-4,4-dimethylcyclohex-1-en-1-yl)methyl)piperazin-1-yl)-N-((4-((((1r,4r)-4-hydroxy-4-methylcyclohexyl)methyl)amino)-3-nitrophenyl)sulfonyl)benzamide], the IC50 was determined as 22.1 nM.

Regarding `CC(=O)NC(C)(C)c1cc(F)c(-c2csc(C3=C(CN4CCN(c5ccc(C(=O)NS(=O)(=O)c6ccc(NC[C@H]7CC[C@](C)(O)CC7)c([N+](=O)[O-])c6)c(Oc6cnc7[nH]ccc7c6)c5)CC4)CCC(C)(C)C3)c2)c(F)c1` [Example 80, 2-((1H-pyrrolo[2,3-b]pyridin-5-yl)oxy)-4-(4-((2-(4-(4-(2-acetamidopropan-2-yl)-2,6-difluorophenyl)thiophen-2-yl)-4,4-dimethylcyclohex-1-en-1-yl)methyl)piperazin-1-yl)-N-((4-((((1r,4r)-4-hydroxy-4-methylcyclohexyl)methyl)amino)-3-nitrophenyl)sulfonyl)benzamide], the IC50 was 23.4 nM.

For `Cc1sc(C2=C(CN3CCN(c4ccc(C(=O)NS(=O)(=O)c5ccc(NC[C@H]6CC[C@](C)(O)CC6)c([N+](=O)[O-])c5)c(Oc5cnc6[nH]ccc6c5)c4)CC3)CCC(C)(C)C2)cc1-c1c(F)cc(C(C)(C)O)cc1F` [Example 81, 2-((1H-pyrrolo[2,3-b]pyridin-5-yl)oxy)-4-(4-((2-(4-(2,6-difluoro-4-(2-hydroxypropan-2-yl)phenyl)-5-methylthiophen-2-yl)-4,4-dimethylcyclohex-1-en-1-yl)methyl)piperazin-1-yl)-N-((4-((((1r,4r)-4-hydroxy-4-methylcyclohexyl)methyl)amino)-3-nitrophenyl)sulfonyl)benzamide], the IC50 was 103 nM.

In the case of `CC1(C)CCC(CN2CCN(c3ccc(C(=O)NS(=O)(=O)c4ccc(NC[C@H]5CC[C@](C)(O)CC5)c([N+](=O)[O-])c4)c(Oc4cnc5[nH]ccc5c4)c3)CC2)=C(c2cc(-c3c(F)cc(C(C)(C)C(=O)O)cc3F)cs2)C1` [Example 82, 2-(4-(5-(2-((4-(3-((1H-pyrrolo[2,3-b]pyridin-5-yl)oxy)-4-(((4-((((1r,4r)-4-hydroxy-4-methylcyclohexyl)methyl)amino)-3-nitrophenyl)sulfonyl)carbamoyl)phenyl)piperazin-1-yl)methyl)-5,5-dimethylcyclohex-1-en-1-yl)thiophen-3-yl)-3,5-difluorophenyl)-2-methylpropanoic acid], the IC50 turned out to be 22.3 nM.

The record behind these values is patent US12577245B2, “Sulfonyl benzamide derivatives as Bcl-2 inhibitors” (ASCENTAGE PHARMA (SUZHOU) CO., LTD., priority 2021, dated 2026).
